Assay results: US9018224B2, “Substituted cyclopropyl compounds useful as GPR119 agonists” (Merck Sharp & Dohme Corp., priority 2011, dated 2015)

biological target: T1, human GPR119 (Homo sapiens, UniProt Q8TDV5); test: Measurement of GPR119 signaling by cAMP (LANCE cAMP kit or HTRF) in HEK293 cells transfected with human GPR119; type: cell-based; conditions: agonist cAMP response in HEK293 cells stably transfected with human GPR119; patent does not say which of the two cAMP formats (LANCE or HTRF)
T1 sequence (Q8TDV5 1-308 limits assumed): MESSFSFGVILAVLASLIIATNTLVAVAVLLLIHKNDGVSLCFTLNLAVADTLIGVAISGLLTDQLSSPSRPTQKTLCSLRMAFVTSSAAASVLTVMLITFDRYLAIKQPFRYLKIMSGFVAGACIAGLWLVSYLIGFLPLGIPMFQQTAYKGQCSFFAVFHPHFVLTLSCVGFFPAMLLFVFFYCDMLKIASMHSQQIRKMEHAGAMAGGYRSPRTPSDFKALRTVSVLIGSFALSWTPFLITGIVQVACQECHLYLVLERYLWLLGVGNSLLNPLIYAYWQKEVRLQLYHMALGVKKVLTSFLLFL
Procedure, shortened: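 LANCE TR-FRET cAMP readout; detection with Eu-SA/biotin-cAMP tracer for 3 h, signal converted to cAMP via standard curve, duplicates, 4-parameter fit vs DMSO basal and internal agonist maximum.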

Row | SMILES | EC50 [nM]
1 | COCc1cnc(N2CCC([C@H]3C[C@H]3CCOc3ccc(CC(=O)N4CC(OC)C4)c(Cl)c3)CC2)nc1 [Example 30] | 0.86
2 | O=C(Cc1ccc(OCC[C@@H]2C[C@@H]2C2CCN(c3ncc(Cl)cn3)CC2)cc1F)N1CCc2cn[nH]c2C1 [Example 182] | 2.4
3 | CN(CCS(C)(=O)=O)C(=O)Cc1ccc(OCC[C@@H]2C[C@@H]2C2CCN(c3ncc(Cl)cn3)CC2)cc1F [Example 169] | 3.2
4 | COc1cnc(N2CCC([C@H]3C[C@H]3CCOc3cc(F)c(CC(=O)N4CC(OC)C4)c(F)c3)CC2)nc1 [Example 211] | 0.11
5 | O=C(Cc1ccc(OCC[C@@H]2C[C@@H]2C2CCN(c3ncc(Cl)cn3)CC2)nc1)N1CCC1 [Example 242] | 9.4

The remaining lines, values ahead:

Row | EC50 [nM] | SMILES
6 | 0.97 | O=C(Cc1ccc(OCC[C@@H]2C[C@@H]2C2CCN(c3ncc(Cl)cn3)CC2)cc1F)N1Cc2sccc2C(O)C1 (stereo partly shown) [Example 173]
7 | 3.1 | O=C(Cc1ccc(OCC[C@@H]2C[C@@H]2C2CCN(c3ncc(Cl)cn3)CC2)cc1F)N1CCc2[nH]nc(C(F)(F)F)c2C1 [Example 146]
